The values below come from patent US7737127B2, “2-propynyl adenosine analogs having A2A agonist activity and compositions thereof” (University of Virginia Patent Foundation, priority 2001, dated 2010).

One may read the Ki as a dissociation constant, usually derived from enzyme kinetics or from competition with a known ligand. The term EC50 denotes the concentration needed to bring the measured effect to its halfway point.

In one test the target is T1, human A1 AR (Homo sapiens, UniProt P30542).
T1 sequence (P30542 1-326): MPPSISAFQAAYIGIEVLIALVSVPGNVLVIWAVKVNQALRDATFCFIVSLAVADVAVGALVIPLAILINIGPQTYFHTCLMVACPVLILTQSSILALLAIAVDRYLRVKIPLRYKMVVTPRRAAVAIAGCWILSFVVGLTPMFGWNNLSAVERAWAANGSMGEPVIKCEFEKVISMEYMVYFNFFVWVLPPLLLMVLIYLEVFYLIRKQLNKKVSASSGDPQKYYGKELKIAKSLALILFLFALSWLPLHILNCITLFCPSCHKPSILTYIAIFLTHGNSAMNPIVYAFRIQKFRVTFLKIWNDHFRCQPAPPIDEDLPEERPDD
Description: Radioligand competition binding (125I-ABA) to human A1 AR in CHO K1 cell membranes. The following applies: for Ki: A1 ± SEM, Ki from competition binding, 125I-ABA, CHO K1 cell membranes; for A1/A2A: selectivity ratio A1 over A2A.

The next test deals with T2, A3 AR (Homo sapiens, UniProt P0DMS8).
T2 sequence (P0DMS8 1-318): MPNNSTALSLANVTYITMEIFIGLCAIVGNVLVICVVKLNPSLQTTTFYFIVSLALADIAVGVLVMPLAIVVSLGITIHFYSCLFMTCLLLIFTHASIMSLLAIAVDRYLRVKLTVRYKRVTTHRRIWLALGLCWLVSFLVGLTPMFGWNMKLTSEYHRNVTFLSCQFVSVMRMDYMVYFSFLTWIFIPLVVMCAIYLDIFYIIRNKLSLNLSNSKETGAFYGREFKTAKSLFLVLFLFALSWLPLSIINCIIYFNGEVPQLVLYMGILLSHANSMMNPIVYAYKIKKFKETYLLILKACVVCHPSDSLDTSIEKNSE
Description: Radioligand competition binding (125I-ABA) to human A3 AR in HEK 293 cell membranes. The following applies: for Ki: A3 ± SEM, Ki from competition binding, 125I-ABA, HEK 293 cell membranes; for A3/A2A: selectivity ratio A3 over A2A. On the technique in general: In a radioligand displacement assay an active substance lowers the binding of a labelled ligand.

For a further test, the system named is human neutrophils. Description: Human neutrophil oxidative activity, luminol-enhanced chemiluminescence. The following applies: for EC50: Homo sapiens, Neutrophil, human neutrophil experiment w/o Rolipram, read-out: PMN oxid (-log EC50) (converted); for PMN oxid + roli (-log EC50): human neutrophil experiment w/Rolipram. Type of test: cell-based. The protocol: Chemiluminescence Methods: Lumninol enhanced chemiluminescence, a measure of neutrophil oxidative activity, is dependent upon both superoxide production and mobilization of the granule enzyme myeloperoxidase. The light is emitted from unstable high-energy oxygen species such as hypochlorous acid and singlet oxygen generated by activated neutrophils.
The plate was incubated 5 min (37 C) and then fMLP (50 l in HA; final concentration […]) was added to all wells.
Data are presented as peak chemiluminescence as percent of activity in the absence of an adenosine agonist. The EC50 was determined using PRISM software. All compounds were tested with PMNs from three separate donors.
Lummol-enhanced chemiluminescence, a measure of neutrophil oxidative activity, is dependent upon both superoxide production and mobilization of the lysosomal granule enzyme myeloperoxidase. The light is emitted from unstable high-energy oxygen species generated by activated neutrophils. Purified neutrophils (5-10×10^5/ml) were incubated in Hanks balanced salt solution containing 0.1% human serum albumin (1 ml) with the tested A2A agonist with or without rolipram and with or without tumor necrosis factor-alpha (1 U/ml) for 30 minutes at 37° C. in a shaking water bath. […] Chemiluminescence is reported as relative peak light emitted (=height of the curve) compared to samples with tumor necrosis factor-alpha and without agonist or rolipram.

Test [1] deals with recombinant human A2A receptors (Homo sapiens, UniProt P29274). Description: Radioligand competition binding to recombinant human A2A receptors in Sf9 cell membranes. The note with it: A2A ± SEM, Ki from competition binding, Sf9 cell membranes.
Sequence of recombinant human A2A receptors (P29274 whole entry): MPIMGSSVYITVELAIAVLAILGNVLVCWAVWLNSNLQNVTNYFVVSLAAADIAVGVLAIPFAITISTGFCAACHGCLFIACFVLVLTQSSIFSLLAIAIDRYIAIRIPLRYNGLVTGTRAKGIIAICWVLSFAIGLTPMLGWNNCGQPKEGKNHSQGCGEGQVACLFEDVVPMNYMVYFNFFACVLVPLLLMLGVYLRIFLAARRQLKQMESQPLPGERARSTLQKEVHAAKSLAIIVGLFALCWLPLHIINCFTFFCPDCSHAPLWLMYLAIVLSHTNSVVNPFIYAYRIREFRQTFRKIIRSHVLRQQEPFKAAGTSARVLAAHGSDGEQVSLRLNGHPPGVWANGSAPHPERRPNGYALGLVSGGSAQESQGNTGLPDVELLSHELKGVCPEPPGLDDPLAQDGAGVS
Description: (§1) Sf9 cells were cultured in Grace's medium supplemented with 10% fetal bovine serum, 2.5 μg/ml amphotericin B and 50 μg/ml gentamycin in an atmosphere of 50% N2/50% O2. […] Infected cells were harvested 3 days post-infection and washed twice in insect PBS (PBS pH 6.3). Cells were then resuspended in lysis buffer (20 mM HEPES pH 7.5, 150 mM NaCl, 3 mM MgCl2, 1 mM β-mercaptoethanol (BME), 5 μg/mL leupeptin, 5 μg/mL pepstatin A, 1 μg/mL aprotinin, and 0.1 mM PMSF) and snap frozen for storage at −80° C. Cells were thawed on ice, brought to 30 mL total volume in lysis buffer, and burst by N2 cavitation (600 psi for 20 minutes). A low-speed centrifugation was performed to remove any unlysed cells (1000×g for 10 minutes), followed by a high-speed centrifugation (17,000×g for 30 minutes). The pellet from the final centrifugation was homogenized in buffer containing 20 mM HEPES pH 8, 100 mM NaCl, 1% glycerol, 2 μg/mL leupeptin, 2 μg/mL pepstatin A, 2 μg/mL Aprotinin, 0.1 mM PMSF, and 10 μM GDP using a small glass homogenizer followed by passage through a 26 gauge needle. Membranes were aliquoted, snap frozen in liquid N2, and stored at −80° C.
(§2) Binding experiments were performed in triplicate with 5 μg (A2A) or 25 μg (A1 and A3) membrane protein in a total volume of 0.1 mL HE buffer (20 mM HEPES and 1 mM EDTA) with 1 U/mL adenosine deaminase and 5 mM MgCl2 with or without 50 μM GTPγS. Membranes were incubated with radioligands at room temperature for three hours (for agonists) or two hours (for antagonists) in Millipore Multiscreene® 96-well GF/C filter plates and assays were terminated by rapid filtration on a cell harvester (Brandel, Gaithersburg, Md.) followed by 4×150 μl washes over 30 seconds with ice cold 10 mM Tris-HCl, pH 7.4, 10 mM MgCl2.

Description for A3 AR: as §1, §2

On to `CCNC(=O)[C@H]1O[C@@H](n2cnc3c(N)nc(C#CCC4CCC(C(N)=O)CC4)nc32)C(O)C1O` (stereo in doubt) [JR-3055, 5-{6-Amino-2-[3-(4-carbamoyl-cyclohexyl)-prop-1-ynyl]purin-9-yl}-3,4-dihydroxytetrahydrofuran-2-carboxylic acid ethylamide], for which, on human A1 AR, the Ki was 36 ± 2 nM and the A1/A2A is 20.0. Besides, on A3 AR, the Ki turned out to be 28 ± 3 nM and the A3/A2A turned out to be 15.6. For the same compound, in the test on human neutrophils, the EC50 is 31.6 nM and the “PMN oxid + roli (-log EC50)” value was determined as 8.64. The Ki in test [1] came to 1.8 ± 0.2 nM.
`CCNC(=O)[C@H]1O[C@@H](n2cnc3c(N)nc(C#CCC4CCC(C(=O)NC)CC4)nc32)C(O)C1O` (stereo in doubt) [JR-3065, 5-{6-Amino-2-[3-(4-methylcarbamoyl-cyclohexyl)-prop-1-ynyl]-purin-9-yl}-3,4-dihydroxytetrahydrofuran-2-carboxylic acid ethylamide]: at human A1 AR, the inhibitory constant (Ki) came out at 55 ± 13 nM and the A1/A2A is recorded as 15.3. Also, on A3 AR, the Ki is 28 ± 13 nM and the A3/A2A was determined as 7.8. Besides, in the test with human neutrophils, the EC50 was 102 nM and the “PMN oxid + roli (-log EC50)” value was determined as 8.29. Also, in test [1], the Ki was found to be 3.6 ± 0.5 nM.
For the compound `CCNC(=O)[C@H]1O[C@@H](n2cnc3c(N)nc(C#CCC4CCC(CC)CC4)nc32)C(O)C1O` (stereo in doubt) [JR-3087, 5-{6-Amino-2-[3-(4-ethyl-cyclohexyl)-prop-1-ynyl]-purin-9-yl}-3,4-dihydroxytetrahydrofuran-2-carboxylic acid ethylamide], on human A1 AR, affinity was put at a Ki of 20.3 ± 4.5 nM and the A1/A2A is reported as 9.2. For the same compound, at A3 AR, affinity was put at a Ki of 17.8 ± 5.5 nM and the A3/A2A is 8.1. Moreover, in the test with human neutrophils, the EC50 was 46.8 nM and the “PMN oxid + roli (-log EC50)” value came out at 8.51. Further, the Ki in test [1] stood at 2.2 ± 0.2 nM.
As to `CCNC(=O)[C@H]1O[C@@H](n2cnc3c(N)nc(C#CCC4CCC(C(C)=O)CC4)nc32)C(O)C1O` (stereo in doubt) [JR-3119, 5-{2-[3-(4-Acetyl-cyclohexyl)-prop-1-ynyl]-6-aminopurin-9-yl}-3,4-dihydroxytetrahydrofuran-2-carboxylic acid ethylamide], on human A1 AR, the inhibition constant (Ki) was 28.7 ± 3.3 nM and the A1/A2A amounted to 11.9. Further, on A3 AR, the affinity corresponds to a Ki of 18.6 ± 4.4 nM and the A3/A2A is on record as 7.7. For the same compound, in the test with human neutrophils, the EC50 is 28.8 nM and the “PMN oxid + roli (-log EC50)” value worked out at 8.7. Moreover, the Ki in test [1] was found to be 2.4 ± 0.2 nM.
For `CCNC(=O)[C@H]1O[C@@H](n2cnc3c(N)nc(C#CCC4CCC(C(C)O)CC4)nc32)C(O)C1O` (stereo in doubt) [JR-3121, 5-(6-Amino-2-{3-[4-(1-hydroxy-ethyl)-cyclohexyl]-prop-1-ynyl}-purin-9-yl)-3,4-dihydroxytetrahydrofuran-2-carboxylic acid ethylamide], on human A1 AR, the Ki is 52.3 ± 7.6 nM and the A1/A2A is given as 9.3. In addition, on A3 AR, the Ki turned out to be 71 ± 16 nM and the A3/A2A stood at 12.6. For the same compound, in the test with human neutrophils, the EC50 is 105 nM and the “PMN oxid + roli (-log EC50)” value is 8.31. For the same compound, the inhibition constant Ki in test [1] stood at 5.7 ± 0.6 nM.
Turning to `CCNC(=O)[C@H]1O[C@@H](n2cnc3c(N)nc(C#CC(O)(C4CCCCC4)C4CCCCC4)nc32)C(O)C1O` (stereo in doubt) [JR-3139, 5-[6-Amino-2-(3,3-dicyclohexyl-3-hydroxy-prop-1-ynyl)-purin-9-yl]-3,4-dihydroxytetrahydrofuran-2-carboxylic acid ethylamide], at human A1 AR, the Ki is 801 ± 99 nM and the A1/A2A turned out to be 4.8. At A3 AR, affinity was put at a Ki of 83.7 ± 30 nM and the A3/A2A turned out to be 0.5. In the test with human neutrophils, the EC50 is 4070 nM and the “PMN oxid + roli (-log EC50)” value came to 6.75. Further, the Ki in test [1] came to 166 ± 42 nM.
As for `CCNC(=O)[C@H]1O[C@@H](n2cnc3c(N)nc(C#CC4(O)CCC(CC)CC4)nc32)C(O)C1O` (stereo in doubt) [JR-3149, 5-[6-Amino-2-(4-ethyl-1-hydroxy-cyclohexylethynyl)-purin-9-yl]-3,4-dihydroxytetrahydrofuran-2-carboxylic acid ethylamide], at human A1 AR, the Ki was found to be 3.8 ± 0.4 nM and the A1/A2A turned out to be 7.0. At A3 AR, the Ki was determined as 7.3 ± 1.9 nM and the A3/A2A was determined as 13.5. Moreover, in the test on human neutrophils, the EC50 is 2.19 nM and the “PMN oxid + roli (-log EC50)” value is given as 9.63. Also, in test [1], the Ki was 0.5 ± 0.05 nM.
As to `CCNC(=O)[C@H]1O[C@@H](n2cnc3c(N)nc(C#CC4(O)CCC(c5ccccc5)CC4)nc32)C(O)C1O` (stereo in doubt) [JR-3161, 5-[6-Amino-2-(1-hydroxy-4-phenyl-cyclohexylethynyl)-purin-9-yl]-3,4-dihydroxytetrahydrofuran-2-carboxylic acid ethylamide], on human A1 AR, the affinity corresponds to a Ki of 10.9 ± 0.5 nM and the A1/A2A came out at 12.2. In addition, at A3 AR, the Ki was 113 ± 6 nM and the A3/A2A was 127.0. For the same compound, in the test with human neutrophils, the EC50 is 4.47 nM and the “PMN oxid + roli (-log EC50)” value came out at 9.29. In addition, in test [1], the Ki turned out to be 0.9 ± 0.04 nM.
With `CCNC(=O)[C@H]1O[C@@H](n2cnc3c(N)nc(C#CC4(O)CC(C)(C)CC(C)(C)C4)nc32)C(O)C1O` (stereo in doubt) [JR-3163, 5-[6-Amino-2-(1-hydroxy-3,3,5,5-tetramethyl-cyclohexylethynyl)-purin-9-yl]-3,4-dihydroxytetrahydrofuran-2-carboxylic acid ethylamide], on human A1 AR, the Ki worked out at 784 ± 94 nM and the A1/A2A came to 70.6. In addition, at A3 AR, affinity was put at a Ki of 152 ± 62 nM and the A3/A2A worked out at 13.7. In addition, in the test with human neutrophils, the EC50 is 537 nM and the “PMN oxid + roli (-log EC50)” value amounted to 7.67. The Ki in test [1] was determined as 11.1 ± 2.8 nM.
In the case of `CCNC(=O)[C@H]1O[C@@H](n2cnc3c(N)nc(C#CC4(O)CCCC(C)(C)C4)nc32)C(O)C1O` (stereo in doubt) [JR-3201B, 5-[6Amino-2-(1-hydroxy-3,3-dimethylcyclohexylethynyl)-purin-9-yl]-3,4-dihydroxytetrahydrofuran-2-carboxylic acid ethylamide], on human A1 AR, the Ki came out at 157 ± 14 nM and the A1/A2A is reported as 98.1. Moreover, at A3 AR, the Ki was 23.6 ± 0.35 nM and the A3/A2A was 14.8. In the test with human neutrophils, the 50% effective concentration (EC50) is 8.71 nM and the “PMN oxid + roli (-log EC50)” value is on record as 9.2. Besides, the Ki in test [1] worked out at 1.6 ± 0.28 nM.
In the case of `CCNC(=O)[C@H]1O[C@@H](n2cnc3c(N)nc(C#CC4(O)CCC(C(C)(C)C)CC4)nc32)C(O)C1O` (stereo in doubt) [JR-3203, 5-[6-Amino-2-(4-tert-butyl-1-hydroxycyclohexylethynyl)purin-9-yl]-3,4-dihydroxytetrahydrofuran-2-carboxylic acid ethylamide], on human A1 AR, the Ki is 14.7 ± 2.2 nM and the A1/A2A is given as 9.5. At A3 AR, the affinity, expressed as Ki, was 43.3 ± 18 nM and the A3/A2A is on record as 28.1. Also, in the test on human neutrophils, the EC50 was 14.1 nM and the “PMN oxid + roli (-log EC50)” value is 9.11. In test [1], the Ki is 1.5 ± 0.22 nM.
For `CCNC(=O)[C@H]1O[C@@H](n2cnc3c(N)nc(C#CCN4CCN(C(=O)OCC)CC4)nc32)C(O)C1O` (stereo in doubt) [JR-3213, 4-{3-[6-Amino-9-(5-ethylcarbamoyl-3,4-dihydroxytetrahydrofuran-2-yl)-9H-purin-2-yl]-prop-2-ynyl}-piperazine-1-carboxylic acid ethyl ester], on human A1 AR, affinity was put at a Ki of 15.8 ± 0.48 nM and the A1/A2A worked out at 8.3. Besides, on A3 AR, the affinity corresponds to a Ki of 42.3 ± 18.3 nM and the A3/A2A stood at 22.3. Also, in the test with human neutrophils, the EC50 was 3.47 nM and the “PMN oxid + roli (-log EC50)” value was 9.11. Also, the Ki in test [1] turned out to be 1.9 ± 0.4 nM.
